According to publication PMC4182301, “Design, synthesis and SAR exploration of tri-substituted 1,2,4-triazoles as inhibitors of the annexin A2–S100A10 protein interaction” (Bioorganic & Medicinal Chemistry, 2014):
Read-outs that look alike come from different tables or passages of the source.

Biological target: interaction between the AnxA2 N-terminus and S100A10 (Homo sapiens, UniProt P60903)
Test: Fluorescence screening assay (FRET competitive binding, Cy3-AnxA2(Ac1–14) peptide / Cy5-S100A10)
Settings: for IC50 / pIC50 ± SE: FRET assay, 12 observations; for inhibitory activity (in words): truncation of 35 to 5-methyl derivative, and its side chain extension; for fold increase in potency compared to initial hit compound 1a: relative to 1a
Protocol: Assessment of compound activity was performed as described.[35] Briefly, a Cy5-labelled S100A10 tracer was developed and binding of a Cy3-labelled AnxA2(Ac1–14) peptide ligand was assessed using a fluorescence resonance energy transfer readout. Assays were carried out in Nunc black non-treated 384-well plates at 20 °C in 50 μL buffer C. All incubations were performed in quadruplicate. Compounds, peptide and buffer controls were added to the wells in a 10 μL volume in 5% DMSO. Cy5-labelled S100A10 tracer (407 nM) and Cy3-labelled AnxA2(Ac1–14) peptide ligand (1.33 μM) were pre-incubated for 5 min at 20 °C and 40 μL of the preformed complex was then added to the wells and mixed for 10 s to yield a final DMSO concentration of 1%. After 5 min incubation at 20 °C, readings were taken on a Perkin Elmer Envision plate reader by excitation at 488 nm and emission at 695 nm. Fluorescence resonance energy transfer (FRET) was calculated by subtracting the sum of the fluorescence emission of S100A10-Cy5 and AA2(1–14)-Cy3 individually from that measured for the co-incubated partners. Compound binding was calculated as percentage of non-treated control and data were analysed by non-linear regression (dose response—variable slope with bottom and top parameters fixed at 0% and 100%, respectively) using Graphpad Prism Software to determine the IC50 of binding (primary assay).

Sequence of interaction between the AnxA2 N-terminus and S100A10 (P60903 whole entry, species assumed): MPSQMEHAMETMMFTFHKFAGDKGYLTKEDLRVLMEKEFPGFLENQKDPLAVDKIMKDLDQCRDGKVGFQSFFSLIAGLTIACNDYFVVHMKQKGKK

Q: How did the IC50 (Table 1, read-out: IC50) turn out when `COc1ccc(OCc2nnc(SC(C)C(=O)Nc3nccs3)n2-c2ccccc2)cc1` (stereo not drawn) [Compound 1c] was run?
A: The IC50 was 108 µM.

Q: And the IC50 (Table 1, read-out: pIC50 ± SE (converted))?
A: The IC50 was 110 µM.

Q: With `Cc1cccc(NC(=O)CSc2nnc(CSc3nc(C)cc(C)n3)n2Cc2ccco2)c1` [Compound 32, 2-[5-(4,6-Dimethyl-pyrimidin-2-ylsulfanylmethyl)-4-furan-2-ylmethyl-4H-[1,2,4]triazol-3-ylsulfanyl]-N-m-tolyl-acetamide] as the compound, how does the “pIC50 ± SE” value (Table 1) read?
A: Its value is 4.89 ± 0.04.

Q: And the IC50 (Table 1, read-out: IC50)?
A: The IC50 was 13 µM.

Q: `COc1ccc(-n2c(CSc3nc(C)cc(C)n3)nnc2SCC(=O)Nc2cc(C(F)(F)F)cc(C(F)(F)F)c2)cc1` [Compound 54, N-(3,5-Bis-trifluoromethyl-phenyl)-2-[5-(4,6-dimethyl-pyrimidin-2-ylsulfanylmethyl)-4-(4-methoxy-phenyl)-4H-[1,2,4]triazol-3-ylsulfanyl]-acetamide] was tested. Which “pIC50 ± SE” value (Table 2) did it give?
A: Its value is 5.14 ± 0.04.

Q: What about the IC50 (Table 2, read-out: IC50) of the same compound?
A: The IC50 was 7 µM.

Q: `COCCCn1c(C)nnc1SCC(=O)Nc1ccc(C(C)C)cc1` [Compound 66, N-(4-Isopropyl-phenyl)-2-[4-(3-methoxy-propyl)-5-methyl-4H-[1,2,4]triazol-3-ylsulfanyl]-acetamide] was tested. Which “pIC50 ± SE” value (Table 3) did it give?
A: Its value is 3.79 ± 0.14.

Q: And the IC50 (Table 3, read-out: IC50)?
A: Its IC50 is 164 µM.

Q: What about the “fold loss of activity on truncation of the 4,6-dimethylpyrimidin-2-ylsulfanyl side chain to methyl” value (relative to parent compound (64 vs 36, 65 vs 46, 66 vs 47)) of the same compound?
A: Its value is 23 fold.

Q: For `Cc1cc(C)nc(SCc2nnc(SCC(N)=O)n2Cc2ccco2)n1` [Compound 27, 2-[5-(4,6-Dimethyl-pyrimidin-2-ylsulfanylmethyl)-4-furan-2-ylmethyl-4H-[1,2,4]triazol-3-ylsulfanyl]-acetamide], which “pIC50 ± SE” value (Table 1) is on record?
A: The value was 3.75 ± 0.15.

Q: What about the IC50 (Table 1, read-out: IC50) of the same compound?
A: The IC50 was 178 µM.

Q: For `Cc1ccc(NC(=O)CCSc2nnc(C)n2Cc2ccco2)cc1C` [Compound 63, N-(3,4-Dimethyl-phenyl)-3-(4-furan-2-ylmethyl-5-methyl-4H-[1,2,4]triazol-3-ylsulfanyl)-propionamide], which “pIC50 ± SE” value (Table 3) is on record?
A: Its value is 2.95 ± 0.26.

Q: What about the IC50 (Table 3, read-out: IC50) of the same compound?
A: Its IC50 is over 1000 µM.

Q: And the “inhibitory activity (in words)” value?
A: The value was “abolished activity”.

Q: Which “pIC50 ± SE” value (Table 2) does the source give for `Cc1cc(C)nc(SCc2nnc(SCC(=O)Nc3ccc(C)c(C)c3)n2-c2ccc(Cl)cc2)n1` [Compound 44, 2-[4-(4-Chloro-phenyl)-5-(4,6-dimethyl-pyrimidin-2-ylsulfanylmethyl)-4H-[1,2,4]triazol-3-ylsulfanyl]-N-(3,4-dimethyl-phenyl)-acetamide] here?
A: Its value is 4.23 ± 0.08.

Q: What about the IC50 (Table 2, read-out: IC50) of the same compound?
A: The IC50 was 59 µM.

Q: How did the “pIC50 ± SE” value (Table 1) turn out when `Cc1cc(C)nc(SCc2nnc(SCC(=O)Nc3nccs3)n2Cc2ccco2)n1` [Compound 28, 2-[5-(4,6-Dimethyl-pyrimidin-2-ylsulfanylmethyl)-4-furan-2-ylmethyl-4H-[1,2,4]triazol-3-ylsulfanyl]-N-thiazol-2-yl-acetamide] was run?
A: Its value is 3.89 ± 0.06.

Q: And the IC50 (Table 1, read-out: IC50)?
A: The IC50 was 129 µM.

Q: For `C=CCn1c(CSc2nc(C)cc(C)n2)nnc1SCC(=O)Nc1ccc(C(C)C)cc1` [Compound 46, 2-[4-Allyl-5-(4,6-dimethyl-pyrimidin-2-ylsulfanylmethyl)-4H-[1,2,4]triazol-3-ylsulfanyl]-N-(4-isopropyl-phenyl)-acetamide], which “pIC50 ± SE” value (Table 2) is on record?
A: Its value is 5.01 ± 0.03.

Q: And the IC50 (Table 2, read-out: IC50)?
A: Its IC50 is 10 µM.

Q: What does the source list for `Cc1cc(C)nc(SCc2nnc(SCC(=O)Nc3cc(C(F)(F)F)cc(C(F)(F)F)c3)n2Cc2ccco2)n1` [Compound 38, N-(3,5-Bis-trifluoromethyl-phenyl)-2-[5-(4,6-dimethyl-pyrimidin-2-ylsulfanylmethyl)-4-furan-2-ylmethyl-4H-[1,2,4]triazol-3-ylsulfanyl]-acetamide]?
A: pIC50 ± SE (Table 1): 5.05 ± 0.03; IC50 (Table 1, read-out: IC50): 9 µM

Q: Which results are given for `Cc1cc(C)nc(SCc2nnc(SCC(=O)Nc3ccc(Br)cc3)n2Cc2ccco2)n1` [Compound 40, N-(4-Bromo-phenyl)-2-[5-(4,6-dimethyl-pyrimidin-2-ylsulfanylmethyl)-4-furan-2-ylmethyl-4H-[1,2,4]triazol-3-ylsulfanyl]-acetamide]?
A: pIC50 ± SE (Table 1): 5.14 ± 0.03; IC50 (Table 1, read-out: IC50): 7 µM; fold increase in potency compared to initial hit compound 1a: 5 fold

Q: What does the source list for `C=CCn1c(CSc2nc(C)cc(C)n2)nnc1SCC(=O)Nc1ccc(C)c(C)c1` [Compound 41, 2-[4-Allyl-5-(4,6-dimethyl-pyrimidin-2-ylsulfanylmethyl)-4H-[1,2,4]triazol-3-ylsulfanyl]-N-(3,4-dimethyl-phenyl)-acetamide]?
A: pIC50 ± SE (Table 2): 4.56 ± 0.03; IC50 (Table 2, read-out: IC50): 27 µM

Q: `Cc1cc(C)nc(SCc2nnc(SCC(=O)Nc3ccc(C(F)(F)F)cc3)n2Cc2ccco2)n1` [Compound 37, 2-[5-(4,6-Dimethyl-pyrimidin-2-ylsulfanylmethyl)-4-furan-2-ylmethyl-4H-[1,2,4]triazol-3-ylsulfanyl]-N-(4-trifluoromethyl-phenyl)-acetamide] was tested. Which “pIC50 ± SE” value (Table 1) did it give?
A: The value was 4.55 ± 0.07.

Q: And the IC50 (Table 1, read-out: IC50)?
A: The IC50 was 28 µM.

Q: Which results are given for `Cc1ccc(NC(=O)CSc2nnc(C)n2Cc2ccco2)cc1C` [Compound 62, N-(3,4-Dimethyl-phenyl)-2-(4-furan-2-ylmethyl-5-methyl-4H-[1,2,4]triazol-3-ylsulfanyl)-acetamide]?
A: pIC50 ± SE (Table 3): 2.32 ± 0.48; IC50 (Table 3, read-out: IC50): > 1000 µM; inhibitory activity (in words): complete loss of activity

Q: Which results are given for `COc1ccc(-n2c(CSc3nc(C)cc(C)n3)nnc2SCC(=O)Nc2ccc(C(F)(F)F)cc2)cc1` [Compound 52, 2-[5-(4,6-Dimethyl-pyrimidin-2-ylsulfanylmethyl)-4-(4-methoxy-phenyl)-4H-[1,2,4]triazol-3-ylsulfanyl]-N-(4-trifluoromethyl-phenyl)-acetamide]?
A: pIC50 ± SE (Table 2): 5.35 ± 0.04; IC50 (Table 2, read-out: IC50): 4 µM; fold increase in potency compared to initial hit compound 1a: 10 fold

Q: How did the “pIC50 ± SE” value (Table 2) turn out when `Cc1cc(C)nc(SCc2nnc(SCC(=O)Nc3ccc(C(F)(F)F)cc3)n2-c2ccc(Cl)cc2)n1` [Compound 53, 2-[4-(4-Chloro-phenyl)-5-(4,6-dimethyl-pyrimidin-2-ylsulfanylmethyl)-4H-[1,2,4]triazol-3-ylsulfanyl]-N-(4-trifluoromethyl-phenyl)-acetamide] was run?
A: The value was 5.07 ± 0.03.

Q: And the IC50 (Table 2, read-out: IC50)?
A: Its IC50 is 8 µM.

Q: What does the source list for `Cc1cc(C)nc(SCc2nnc(SCCC(=O)Nc3ccc(C)c(C)c3)n2Cc2ccco2)n1` [Compound 45, N-(3,4-Dimethyl-phenyl)-3-[5-(4,6-dimethyl-pyrimidin-2-ylsulfanylmethyl)-4-furan-2-ylmethyl-4H-[1,2,4]triazol-3-ylsulfanyl]-propionamide]?
A: pIC50 ± SE (Table 2): 4.62 ± 0.03; IC50 (Table 2, read-out: IC50): 24 µM

Q: Which “pIC50 ± SE” value (Table 1) does the source give for `Cc1cc(C)nc(SCc2nnc(SCC(=O)Nc3ccc(C)c(C)c3)n2Cc2ccco2)n1` [Compound 35, N-(3,4-Dimethyl-phenyl)-2-[5-(4,6-dimethyl-pyrimidin-2-ylsulfanylmethyl)-4-furan-2-ylmethyl-4H-[1,2,4]triazol-3-ylsulfanyl]-acetamide] here?
A: Its value is 5.02 ± 0.04.

Q: What about the IC50 (Table 1, read-out: IC50) of the same compound?
A: The IC50 was 10 µM.

Q: What does the source list for `Cc1cc(C)nc(SCc2nnc(SCC(=O)Nc3ccc(Cl)cc3)n2Cc2ccco2)n1` [Compound 39, N-(4-Chloro-phenyl)-2-[5-(4,6-dimethyl-pyrimidin-2-ylsulfanylmethyl)-4-furan-2-ylmethyl-4H-[1,2,4]triazol-3-ylsulfanyl]-acetamide]?
A: pIC50 ± SE (Table 1): 4.76 ± 0.03; IC50 (Table 1, read-out: IC50): 17 µM

Q: How did the “pIC50 ± SE” value (Table 1) turn out when `Cc1cc(C)nc(SCc2nnc(SCC(=O)Nc3nc(C)cs3)n2Cc2ccco2)n1` [Compound 29, 2-[5-(4,6-Dimethyl-pyrimidin-2-ylsulfanylmethyl)-4-furan-2-ylmethyl-4H-[1,2,4]triazol-3-ylsulfanyl]-N-(4-methyl-thiazol-2-yl)-acetamide] was run?
A: Its value is 4.53 ± 0.06.

Q: What about the IC50 (Table 1, read-out: IC50) of the same compound?
A: The IC50 was 30 µM.

Q: For `C=CCn1c(CSc2nc(C)cc(C)n2)nnc1SCC(=O)Nc1ccc(C(F)(F)F)cc1` [Compound 50, 2-[4-Allyl-5-(4,6-dimethyl-pyrimidin-2-ylsulfanylmethyl)-4H-[1,2,4]triazol-3-ylsulfanyl]-N-(4-trifluoromethyl-phenyl)-acetamide], which “pIC50 ± SE” value (Table 2) is on record?
A: The value was 5.08 ± 0.04.

Q: What about the IC50 (Table 2, read-out: IC50) of the same compound?
A: The IC50 was 8 µM.

Q: Which results are given for `Cc1ccc(NC(=O)CSc2nnc(CSc3nc(C)cc(C)n3)n2Cc2ccco2)cc1` [Compound 33, 2-[5-(4,6-Dimethyl-pyrimidin-2-ylsulfanylmethyl)-4-furan-2-ylmethyl-4H-[1,2,4]triazol-3-ylsulfanyl]-N-p-tolyl-acetamide]?
A: pIC50 ± SE (Table 1): 4.96 ± 0.04; IC50 (Table 1, read-out: IC50): 11 µM

Q: What does the source list for `COc1ccc(-n2c(CSc3nc(C)cc(C)n3)nnc2SCC(=O)Nc2ccc(Cl)cc2)cc1` [Compound 55, N-(4-Chloro-phenyl)-2-[5-(4,6-dimethyl-pyrimidin-2-ylsulfanylmethyl)-4-(4-methoxy-phenyl)-4H-[1,2,4]triazol-3-ylsulfanyl]-acetamide]?
A: pIC50 ± SE (Table 2): 4.65 ± 0.05; IC50 (Table 2, read-out: IC50): 22 µM
